Data on 27 compounds can be found in US9920074B2 (ACEA BIOSCIENCES INC., priority 2013, dated 2018).

For experiment [1], the target named is T1, Btk (Tyr223) phosphorylation in Ramos cells (Homo sapiens, UniProt Q06187).
T1 construct: endogenous in cells; host or cells: Ramos cells (ATCC)
Kind of experiment: Western blotting assay for Btk (Example 73). It counts as cell-based. Particulars: 45 min, 6 μg/mL anti-IgM, read-out: Btk Inhibition. The protocol: (§1) All cell lines were obtained from the American Type Culture Collection and were maintained at 37° C. with 5% CO2. Ramos cell line was maintained in media supplemented with 10% fetal bovine serum, penicillin (100 units/mL) and streptomycin (100 μg/mL). NK-92 cell line was maintained in media supplemented with 10% fetal bovine serum and 10% horse serum, penicillin (100 units/mL) and streptomycin (100 μg/mL), IL-2 10 ng/mL. Goat F(ab′)2 Anti-Human IgM-UNLB was obtained from SouthernBiotech. IL-2 was obtained from Peprotech.
Ramos cells were treated with compounds at indicated doses for 45 min at room temperature, followed by stimulation of 6 μg/mL of anti-IgM for 30 min, and then lysed. Western blots were performed on the cell lysate using Phospho-Btk (Tyr223), Phospho-Btk (Tyr551), Btk, Phospho-PLCγ2 (Tyr1217), PLCγ2, Phospho-p44/42 MAPK (Erk1/2) (Thr202/Tyr204) and p44/42 MAPK (Erk1/2) antibodies (Cell Signaling Technology). The density of blotting band was acquired using ImageJ software, and the IC50 of Btk (Tyr223) phosphorylation was fitted using a non-linear regression model by GraphPad Prism.

Experiment [2] relates to Stat5 phosphorylation in NK-92 cells. Put plainly: Western blotting assay for Stat5. It is filed as cell-based. The settings on record: NK92, 1 hour, IL-2 stimulation, read-out: Stat5 inhibition. The protocol: as §1
NK-92 cells were treated with compounds at the dosed indicated for 1 hour in incubator, followed by the IL-2 stimulation for 15 minutes. Cells were then collected and lysed to prepare the cellular extraction. Western blots were performed on cell lysate using Phospho-Jak3, Jak3, Phospho-Stat5, Stat5 antibodies (Cell Signaling Technology). The intensity of blotting band was acquired using Image Lab (Bio-Rad) software, and the IC50 of target was generated with GraphPad Prism.

T1 sequence (Q06187 whole entry): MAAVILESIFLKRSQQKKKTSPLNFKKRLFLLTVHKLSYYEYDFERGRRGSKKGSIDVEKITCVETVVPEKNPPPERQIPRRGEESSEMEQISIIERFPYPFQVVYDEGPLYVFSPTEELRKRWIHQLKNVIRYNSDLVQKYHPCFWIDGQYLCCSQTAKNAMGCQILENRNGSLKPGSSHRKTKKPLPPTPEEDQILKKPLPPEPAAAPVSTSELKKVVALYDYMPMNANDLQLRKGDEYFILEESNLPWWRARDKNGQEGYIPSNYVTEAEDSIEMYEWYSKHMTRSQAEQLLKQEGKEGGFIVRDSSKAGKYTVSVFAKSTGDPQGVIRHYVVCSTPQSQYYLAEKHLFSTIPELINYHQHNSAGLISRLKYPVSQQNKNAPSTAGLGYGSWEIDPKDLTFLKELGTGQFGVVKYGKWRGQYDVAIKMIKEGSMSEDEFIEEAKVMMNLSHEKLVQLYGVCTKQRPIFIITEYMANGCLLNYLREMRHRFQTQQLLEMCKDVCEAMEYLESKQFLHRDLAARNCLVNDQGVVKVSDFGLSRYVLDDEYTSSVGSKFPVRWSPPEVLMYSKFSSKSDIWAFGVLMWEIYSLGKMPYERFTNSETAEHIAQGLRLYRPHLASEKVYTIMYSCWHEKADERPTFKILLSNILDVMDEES

For `C=CC(=O)Nc1cccc(Oc2nc(Nc3ccc(N[C@@H]4CCN(CCF)C4)cc3)ncc2F)c1` [Compound I-19, (R)—N-(3-(5-fluoro-2-(4-(1-(2-fluoroethyl)pyrrolidin-3-ylamino)phenylamino)pyrimidin-4-yloxy)phenyl)acrylamide], the IC50 in experiment [1] was at most 10 nM.

As to `C=CC(=O)Nc1cccc(Oc2nc(Nc3ccc(N4CCN(C)CC4)c(F)c3)ncc2O)c1` [Compound I-23a, N-(3-(2-(3-fluoro-4-(4-methylpiperazin-1-yl)phenylamino)-5-hydroxypyrimidin-4-yloxy)phenyl)acrylamide], the IC50 in experiment [1] is 10 to 100 nM; in experiment [2], at least 400 nM.

As for `C=CC(=O)Nc1cccc(Oc2nc(Nc3ccc(OCCOC)c(F)c3)nc3[nH]ccc23)c1` [Compound I-24a, N-(3-(2-(3-fluoro-4-(2-methoxyethoxy)phenylamino)-7H-pyrrolo[2,3-d]pyrimidin-4-yloxy)phenyl)acrylamide], the IC50 in experiment [1] was in the range of 10 to 100 nM.

Turning to `C=CC(=O)Nc1cccc(Oc2nc(Nc3ccc(N(C)[C@H]4CCN(CCF)C4)cc3)nc3[nH]ccc23)c1` [Compound I-26a, (S)—N-(3-(2-(4-((1-(2-fluoroethyl)pyrrolidin-3-yl)(methyl)amino)phenylamino)-7H-pyrrolo[2,3-d]pyrimidin-4-yloxy)phenyl)acrylamide], the IC50 in experiment [1] was 10 to 100 nM.

For `C=CC(=O)Nc1cccc(Oc2nc(Nc3ccc(N[C@H]4CCN(CCF)C4)cc3)nc3[nH]ccc23)c1` [Compound I-27a, (S)—N-(3-(2-(4-(1-(2-fluoroethyl)pyrrolidin-3-ylamino)phenylamino)-7H-pyrrolo[2,3-d]pyrimidin-4-yloxy)phenyl)acrylamide], the IC50 in experiment [1] is at most 10 nM.

`C=CC(=O)Nc1cccc(Oc2nc(Nc3cccc4c3CCN4CCOC)ncc2OC)c1` [Compound I-28a, N-(3-(5-methoxy-2-(1-(2-methoxyethyl)indolin-4-ylamino)pyrimidin-4-yloxy)phenyl)acrylamide]: in experiment [1], the IC50 was in the range of 10 to 100 nM.

Take `C=CC(=O)Nc1cccc(Nc2nc(Nc3cccc4c3CCN4CCOC)ncc2OC)c1` [Compound I-29a, N-(3-(5-methoxy-2-(1-(2-methoxyethyl)indolin-4-ylamino)pyrimidin-4-ylamino)phenyl)acrylamide]: in experiment [1], the IC50 is at least 100 nM.

For the compound `C=CC(=O)Nc1cccc(Oc2nc(Nc3ccc(N[C@H]4CCN(CCOC)C4)cc3)ncc2OC)c1` [Compound I-30a, (S)—N-(3-(5-methoxy-2-(4-(1-(2-methoxyethyl)pyrrolidin-3-ylamino)phenylamino)pyrimidin-4-yloxy)phenyl)acrylamide], the values for the IC50 in experiment [1] and in experiment [2] were at most 10 nM and at most 200 nM, respectively.

In the case of `C=CC(=O)Nc1cccc(Nc2nc(Nc3ccc(N[C@H]4CCN(CCOC)C4)cc3)ncc2OC)c1` [Compound I-31a, (S)—N-(3-(5-methoxy-2-(4-(1-(2-methoxyethyl)pyrrolidin-3-ylamino)phenylamino)pyrimidin-4-ylamino)phenyl)acrylamide], the values for the IC50 in experiment [1] and in experiment [2] were at most 10 nM and at least 400 nM, respectively.

With `C=CC(=O)Nc1cccc(Oc2nc(Nc3ccc(NCCOC)cc3)ncc2OC)c1` [Compound I-32a, N-(3-(5-methoxy-2-(4-(2-methoxyethylamino)phenylamino)pyrimidin-4-yloxy)phenyl)acrylamide], the results for the IC50 in experiment [1] and in experiment [2] were at most 10 nM and at least 400 nM, respectively.

Consider `C=CC(=O)Nc1cccc(Oc2nc(Nc3ccc(N(C)CCOC)nc3)ncc2OC)c1` [Compound I-33a, N-(3-(5-methoxy-2-(6-((2-methoxyethyl)(methyl)amino)pyridin-3-ylamino)pyrimidin-4-yloxy)phenyl)acrylamide], for which the figures for the IC50 in experiment [1] and in experiment [2] were 10 to 100 nM and at least 400 nM, respectively.

Regarding `C=CC(=O)Nc1cccc(Oc2nc(Nc3ccc4c(c3)CCN4CCOC)ncc2OC)c1` [Compound I-34a, N-(3-(5-methoxy-2-(1-(2-methoxyethyl)indolin-5-ylamino)pyrimidin-4-yloxy)phenyl)acrylamide], the IC50 in experiment [1] is at most 10 nM; in experiment [2] it was at least 400 nM.

Consider `C=CC(=O)Nc1cccc(Oc2nc(Nc3ccc(N(C)[C@H]4CCN(CCOC)C4)cc3OC)ncc2OC)c1` [Compound I-55a, (S)—N-(3-(5-methoxy-2-(2-methoxy-4-((1-(2-methoxyethyl)pyrrolidin-3-yl)(methyl)amino)phenylamino)pyrimidin-4-yloxy)phenyl)acrylamide], for which the IC50 in experiment [1] is at least 100 nM.

For the compound `C=CC(=O)Nc1cccc(Oc2nc(Nc3ccc4c(c3)CCN4S(C)(=O)=O)ncc2OC)c1` [Compound I-59a, N-(3-(5-methoxy-2-(1-(methylsulfonyl)indolin-5-ylamino)pyrimidin-4-yloxy)phenyl)acrylamide], the IC50 in experiment [1] was at most 10 nM.

For `C=CC(=O)Nc1cccc(Oc2nc(Nc3ccc(N(C)[C@H]4CCN(S(C)(=O)=O)C4)cc3)ncc2OC)c1` [Compound I-60a, (S)—N-(3-(5-methoxy-2-(4-(methyl(1-(methylsulfonyl)pyrrolidin-3-yl)amino)phenylamino)pyrimidin-4-yloxy)phenyl)acrylamide], the IC50 in experiment [1] was at most 10 nM.

On to `C=CC(=O)Nc1cccc(Oc2nc(Nc3ccc(N[C@H]4CCN(C(C)=O)C4)cc3)nc3[nH]ccc23)c1` [Compound I-61a, (S)—N-(3-(2-(4-(1-acetylpyrrolidin-3-ylamino)phenylamino)-7H-pyrrolo[2,3-d]pyrimidin-4-yloxy)phenyl)acrylamide], for which the IC50 in experiment [1] was at most 10 nM.

Take `C=CC(=O)Nc1cccc(Oc2nc(Nc3ccc(N[C@H]4CCN(S(C)(=O)=O)C4)cc3)nc3[nH]ccc23)c1` [Compound I-62a, (S)—N-(3-(2-(4-(1-(methylsulfonyl)pyrrolidin-3-ylamino)phenylamino)-7H-pyrrolo[2,3-d]pyrimidin-4-yloxy)phenyl)acrylamide]: the IC50 in experiment [1] was at most 10 nM.

In the case of `C=CC(=O)Nc1cccc(Oc2nc(Nc3ccc(N(C)[C@H]4CCN(S(C)(=O)=O)C4)cc3)nc3[nH]ccc23)c1` [Compound I-63a, (S)—N-(3-(2-(4-(methyl(1-(methylsulfonyl)pyrrolidin-3-yl)amino)phenylamino)-7H-pyrrolo[2,3-d]pyrimidin-4-yloxy)phenyl)acrylamide], the IC50 in experiment [1] is at most 10 nM.

For the compound `C=CC(=O)Nc1cccc(Oc2nc(Nc3ccc(N(C)[C@H]4CCN(C(C)=O)C4)cc3)nc3[nH]ccc23)c1` [Compound I-64a, (S)—N-(3-(2-(4-((1-acetylpyrrolidin-3-yl)(methyl)amino)phenylamino)-7H-pyrrolo[2,3-d]pyrimidin-4-yloxy)phenyl)acrylamide], the IC50 in experiment [1] was at most 10 nM.

On to `C=CC(=O)Nc1cccc(Oc2nc(Nc3ccc(N4CCN(CCOC)CC4)cc3)nc3[nH]cnc23)c1` [Compound I-65a, N-(3-(2-(4-(4-(2-methoxyethyl)piperazin-1-yl)phenylamino)-9H-purin-6-yloxy)phenyl)acrylamide], for which the IC50 in experiment [1] was at most 10 nM.

As to `C=CC(=O)Nc1cccc(Oc2nc(Nc3ccc(N[C@H]4CCN(C(C)=O)C4)cc3)ncc2OC)c1` [Compound I-66a, (S)—N-(3-(2-(4-((1-acetylpyrrolidin-3-yl)amino)phenylamino)-5-methoxypyrimidin-4-yloxy)phenyl)acrylamide], in experiment [1], the IC50 was at most 10 nM.

For the compound `C=CC(=O)Nc1cccc(Oc2nc(Nc3ccc(N[C@H]4CCN(CCOC)C4)cc3)nc3[nH]cnc23)c1` [Compound I-67a, (S)—N-(3-(2-(4-(1-(2-methoxyethyl)pyrrolidin-3-ylamino)phenylamino)-9H-purin-6-yloxy)phenyl)acrylamide], the IC50 in experiment [1] lay within 10 to 100 nM.

For `C=CC(=O)Nc1cccc(Oc2nc(Nc3ccc(N4CCN(C(C)=O)CC4)cc3)nc3[nH]cnc23)c1` [Compound I-68a, N-(3-(2-(4-(4-acetylpiperazin-1-yl)phenylamino)-9H-purin-6-yloxy)phenyl)acrylamide], the IC50 in experiment [1] is 10 to 100 nM.

With `C=CC(=O)Nc1cccc(Oc2nc(Nc3ccc(N4CCN(CCS(C)(=O)=O)CC4)cc3)nc3[nH]cnc23)c1` [Compound I-69a, N-(3-(2-(4-(4-(2-(methylsulfonyl)ethyl)piperazin-1-yl)phenylamino)-9H-purin-6-yloxy)phenyl)acrylamide], the IC50 in experiment [1] fell in the range of 10 to 100 nM.

On to `C=CC(=O)Nc1cccc(Oc2nc(Nc3ccc4c(c3)CS(=O)(=O)N4)ncc2OC)c1` [Compound I-70a, N-(3-((2-((2,2-dioxido-1,3-dihydrobenzo[c]isothiazol-5-yl)amino)-5-methoxypyrimidin-4-yl)oxy)phenyl)acrylamide], for which the IC50 in experiment [1] is 10 to 100 nM.

For the compound `C=CC(=O)Nc1cccc(Oc2nc(Nc3ccc(N(C)[C@H]4CCN(S(C)(=O)=O)C4)cc3)nc3[nH]cnc23)c1` [Compound I-71a, (S)—N-(3-(2-(4-(methyl(1-(methylsulfonyl)pyrrolidin-3-yl)amino)phenylamino)-9H-purin-6-yloxy)phenyl)acrylamide], the IC50 in experiment [1] was at most 10 nM.

Regarding `C=CC(=O)Nc1cccc(Oc2nc(Nc3ccc(N(C)[C@@H]4CCN(C(C)=O)C4)cc3)ncc2OC)c1` [Compound I-72a, (R)—N-(3-(2-(4-((1-acetylpyrrolidin-3-yl)(methyl)amino)phenylamino)-5-methoxypyrimidin-4-yloxy)phenyl)acrylamide], the IC50 in experiment [1] was at most 10 nM.
